Test results: patent publication US12234288B2, “Immunogenic arginase 2 polypeptides” (IO Biotech ApS, priority 2018, dated 2025)

System: ARG2-specific T cells
Test: ARG2-specific CD4+ T cell culture: IFNy ELISPOT and intracellular cytokine staining toward peptide or target cells
Assay type: cell-based, human
Settings: for recognition of peptide-pulsed cells by ARG2-specific T cells: IFNy ELISPOT, FIG. 17A; for specificity of the ARG2-specific T cell culture to peptide: intracellular cytokine staining for TNFα and IFNy and IFNy ELISPOT, FIG. 16A/B
Protocol: ELISPOT assays with ARG2-specific T cells (effector cells) and various immune or cancer cells as target cells (target cells) were setup by placing 1-5×10^4 effector cells (as indicated) and 1-2.5×10^4 target cells (as indicated) in the bottom of an ELISPOT well. Peptide pulsing of target cells were performed by incubation of cells with 20 μM peptide for lhr followed by two washes to remove unbound peptide. These cells served as positive control. Effector cells plated without target cells served as negative control. All conditions were setup in triplicates or quadruplicates.
Intracellular staining of cell cultures was performed on PBMCs after one week of ARG2-derived peptide stimulation in vitro. For the assay, 9×10^5 PBMCs were re-stimulated with ARG2-derived peptides (or incubated with no peptide as a control) for 5 hours in the presence of BD GolgiPlug™ (added after the first hour of peptide stimulation). Stimulated cells were stained with fluorescently labeled antibodies for surface markers (CD3, CD4, CD8) and thereafter permeabilized by using Fixation/Permeabilization and Permeabilization Buffer (eBioscience, cat. 00-{5123-43), according to manufacturer's instructions. Permeabilized cells were then stained with fluorochrome-labeled antibodies for IFNγ and TNFα. Flow cytometry analysis was performed on a FACSCanto™ II (BD Biosciences). Antibodies used: IFNγ-APC, TNFα-BV421, CD4-PerCP, CD8-FITC, CD3-APC-H7, CD4-FITC, CD8-PerCP, and dead cells stain-FVS510 (all from BD Biosciences) according to manufacturer's instructions. For intracellular cytokine staining to detect cytokine production of ARG2-specific T cells in response to target cells, 5×10^5 ARG2 specific cells were incubated with 2.5×10^5 target cells for 5 hours with GolgiPlug™ added after the first hour.
The ARG2-specific T cell culture was established by initial stimulation of PMBCs from a prostate cancer patient with irradiated ARG2-1 loaded autologous mature dendritic cells. The following day IL-12 (20 U/ml) and IL-7 (40 U/ml) was added. PBMCs were restimulated every 8 days with ARG2-1 peptide loaded autologous DCs followed by addition of IL-2 (120 U/ml) the next day. ARG2-specific T cells were enriched using IFNy enrichment kit (MiltenyiBiotec) after 4 stimulations. Cells were expanded and ARG2-specific T cells were further enriched using CD4+ enrichment kit (MiltenyiBiotec).
For mRNA, DCs or cancer cells were transfected with ARG1-DC-LAMP mRNA, ARG2-DC-LAMP mRNA or control mRNA encoding eGFP using electroporation parameters as previously described. Briefly, cells were washed twice in Opti-MEM medium (Thermo Scientific) and adjusted to a final cell concentration of 9-12×10^6 cells/ml. 350 μl cell suspension was preincubated on ice for 5 minutes before addition of 10 μg mRNA. The cell suspension was then quickly transferred into a 2-mm (cancer cells) or 4-mm (DCs) gap electroporation cuvette and electroporated (ref: OM paper). After electroporation, cells were quickly transferred to a dish with pre-warmed medium and incubated in humidified atmosphere with 5% CO2 before use for different experimental analysis. mRNA transfected cells were rested for 1 hr before they were setup in ELISPOT assay or rested overnight before set up in intracellular cytokine staining assay. Electroporation efficiency was determined 24 hours post transfection by FACS analysis of the GFP transfected cells. […]

Sequence: LQTRVHSILKKSVHSVAVIG (listed as Homo sapiens) [ARG2_1, polypeptide derived from human Arginase2, aa11-30]
- recognition of peptide-pulsed cells by ARG2-specific T cells (MONO-MAC-1 cells): effectively recognized
- recognition of peptide-pulsed cells by ARG2-specific T cells (OCI-AML2 cells): effectively recognized
- recognition of peptide-pulsed cells by ARG2-specific T cells (THP-1 cells): effectively recognized
- specificity of the ARG2-specific T cell culture to peptide: highly specific

Sequence: SLRGSLSRLLQTRVHSILKKSVHSVAVIGAPFS (listed as Homo sapiens) [A2L2, long ARG2 peptide, aa2-34, 33-mer]
- specificity of the ARG2-specific T cell culture to peptide: highly specific
